This data set is described as follows: Cytotoxicity against human HepG2 cells assessed as reduction in cell viability incubated for 24 hrs by MTT assay. Format: toxicity, cell-based. (In general: Tetrazolium assays rely on reduction of a dye to a coloured formazan, in cell work by metabolically active cells.)

The record followed here is ChEMBL document CHEMBL6121012, “Chemical Basis of the Traditional Ayurvedic Detoxification Process of the Toxic Medicinal Plant Plumbago zeylanica” (J Nat Prod, 2025).

Take `CC1=CC(=O)c2c(O)cccc2C1=O` [PLUMBAGIN]: the IC50 at 24 h turned out to be 14 µM.
With `C[C@@H]1CC(=O)c2c(O)cccc2[C@H]1O`, the IC50 at 24 h came to 1000 µM.
Next, `C[C@@H]1CC(=O)c2c(O)cccc2[C@@H]1O`: 3000 µM.

The IC50 is the concentration that inhibits the measured activity by half.
